Like-named read-outs stand apart in the source and are kept apart here. Blank lines part the entries; values can stand above or below the molecule they belong to. Where a SMILES comes first, the peptide text is derived from it.
Columns and labels:
[1] = In vitro gastrointestinal digestion of the peptide; type: in vitro ADME
Procedure: Gastrointestinal digestion was evaluated according to the method of Dang et al. ([15]) and Mulet-Cabero et al. ([18]) with minor modification. Simulated gastric juice (pH 2.0) and simulated intestinal fluid mixture (pH 7.6) were added to peptide solution and incubated at 37°C for 2 h, respectively.

[2] = test system: spontaneously hypertensive rats (SHRs); test: Antihypertensive effect in SHRs (tail-cuff SBP); type: in vivo, rat; details: oral, positive control group, 10 mg/kg BW, n = 6 per group
Procedure: The systolic blood pressure (SBP) changes in the SHRs were measured by the tail-cuff method to determine the antihypertensive effect of ser-ala-ser-val-ile-pro-val-ser-ala-val-arg-ala (SASVIPVSAVRA) in vivo. Twenty female SHRs, weighing 230 ± 15 g and the SBP exceeding 190 mmHg, were obtained from Beijing Vital River Laboratory Animal Technology Co., Ltd. (China).
The SHRs were free to eat and drink at 25 ± 4°C and a 40 ± 6% humidity. To get the rats to adapt to the environment, the systolic blood pressure was measured once a day for 1 week. After a week of adaptation, the SHRs were randomly divided into three groups with each group containing 6 SHRs: the control group (sterilized water), captopril group (10 mg/kg captopril BW), SASVIPVSAVRA (30 mg/kg SASVIPVSAVRA BW). The effect of ACE inhibitors on SBP were measured by the Softron BP non-invasive blood pressure monitor (Softron BP-2000, Tokyo, Japan) at 0, 2, 4, and 6 h after oral administration ([1]), The measurements were repeated five times, the recordings were reported as mean ± standard deviation (SD). All animal procedures used in this trial were approved by the Institutional Animal Care and Use Committee of Hangzhou Medical College (Approval No. ZJCLA-IACUC-20010014).

ACE = details: read-out: IC50 of ACE inhibition, cited from earlier work
Source text: Therefore, it was meaningful to study the ACE inhibitory activity of SASVIPVSAVRA. || Generally, the presence of amino acids (Val, Ile) with hydrophobic branches would increase the ACE inhibitory activity ([26]). Therefore, the Val residue and Ile residue in SASVIPVSAVRA may contribute to the ACE activity of the peptide. […] The peptide SASVIPVSAVRA isolated from the yak bone hydrolysate also contained the tripeptide above-mentioned (VIP). The ACE inhibitory activity may also be due to the presence of ACE inhibitor VIP in its structure. Howev ...

[3] = target: T1, angiotensin-converting enzyme (ACE) (UniProt P12822)
T1 sequence: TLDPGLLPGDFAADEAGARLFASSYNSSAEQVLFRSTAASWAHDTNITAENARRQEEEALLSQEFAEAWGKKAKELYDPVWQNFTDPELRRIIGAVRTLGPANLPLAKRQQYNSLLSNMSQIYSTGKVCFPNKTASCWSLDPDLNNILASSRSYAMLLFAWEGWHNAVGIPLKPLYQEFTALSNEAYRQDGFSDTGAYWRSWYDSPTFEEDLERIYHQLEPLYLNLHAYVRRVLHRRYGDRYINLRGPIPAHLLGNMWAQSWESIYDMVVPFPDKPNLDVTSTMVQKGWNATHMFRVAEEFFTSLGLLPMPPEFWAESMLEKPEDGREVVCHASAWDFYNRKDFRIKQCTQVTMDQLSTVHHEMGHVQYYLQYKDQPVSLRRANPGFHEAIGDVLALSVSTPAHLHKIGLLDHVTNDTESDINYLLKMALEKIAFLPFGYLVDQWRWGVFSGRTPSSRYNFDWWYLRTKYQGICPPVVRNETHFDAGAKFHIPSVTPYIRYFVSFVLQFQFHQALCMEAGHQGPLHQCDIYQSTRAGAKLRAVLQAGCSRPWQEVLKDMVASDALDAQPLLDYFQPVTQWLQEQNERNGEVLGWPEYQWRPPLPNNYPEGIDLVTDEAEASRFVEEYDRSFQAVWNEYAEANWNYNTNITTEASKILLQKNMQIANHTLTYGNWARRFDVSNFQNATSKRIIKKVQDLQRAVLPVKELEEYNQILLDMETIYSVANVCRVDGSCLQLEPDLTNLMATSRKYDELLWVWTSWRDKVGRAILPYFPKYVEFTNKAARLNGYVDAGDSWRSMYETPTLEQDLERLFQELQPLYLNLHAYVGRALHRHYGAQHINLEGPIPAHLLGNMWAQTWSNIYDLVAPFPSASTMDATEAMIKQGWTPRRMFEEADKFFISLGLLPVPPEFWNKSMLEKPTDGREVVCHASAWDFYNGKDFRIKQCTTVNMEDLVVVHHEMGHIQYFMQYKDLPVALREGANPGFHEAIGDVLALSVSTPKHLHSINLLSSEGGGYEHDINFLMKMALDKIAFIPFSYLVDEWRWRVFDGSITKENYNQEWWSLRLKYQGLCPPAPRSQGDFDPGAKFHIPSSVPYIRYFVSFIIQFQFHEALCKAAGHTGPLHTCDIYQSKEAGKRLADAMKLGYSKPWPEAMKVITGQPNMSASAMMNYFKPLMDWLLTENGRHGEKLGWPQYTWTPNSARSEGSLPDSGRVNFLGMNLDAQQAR

Digestive stability (peak of parent peptide in digested samples) ([1]; simulated gastric juice pH 2.0 and simulated intestinal fluid pH 7.6, 37°C, 2 h each, MS (TIC chromatography)): easily digested
Molecule: CC[C@H](C)[C@H](NC(=O)[C@@H](NC(=O)[C@H](CO)NC(=O)[C@H](C)NC(=O)[C@@H](N)CO)C(C)C)C(=O)N1CCC[C@H]1C(=O)N[C@H](C(=O)N[C@@H](CO)C(=O)N[C@@H](C)C(=O)N[C@H](C(=O)N[C@@H](CCCNC(=N)N)C(=O)N[C@@H](C)C(=O)O)C(C)C)C(C)C [SASVIPVSAVRA, ser-ala-ser-val-ile-pro-val-ser-ala-val-arg-ala] (H-SASVIPVSAVRA-OH)

Metabolite found in the digestion sample ([1]; digestion of SASVIPVSAVRA, simulated gastric juice pH 2.0 and intestinal fluid pH 7.6, 37°C, peak area by MS): main metabolite
Molecule: CC[C@H](C)[C@H](NC(=O)[C@@H](NC(=O)[C@H](CO)NC(=O)[C@H](C)NC(=O)[C@@H](N)CO)C(C)C)C(=O)N1CCC[C@H]1C(=O)N[C@H](C(=O)N[C@@H](CO)C(=O)N[C@@H](C)C(=O)O)C(C)C [SASVIPVSA] (H-SASVIPVSA-OH)

Molecule: C[C@H](CS)C(=O)N1CCC[C@H]1C(=O)O [captopril]
Maximum reduction of systolic blood pressure [2]: 14.9%

Molecule: IVVE
IC50 (ACE; reported peptides): 315 µM

Molecule: QLLLQQ
IC50 (ACE; reported peptides): 75 µM

Molecule: SGGSYADELVSTAK
IC50 (ACE; reported ACE peptide): 0.093 µM

IC50 of ACE inhibitory activity (substrate HHL, HEPES buffer with 300 mM NaCl, pH 8.3, 37°C, HPLC) [3]: 54.2 μM
Molecule: SASVIPVSAVRA [ser-ala-ser-val-ile-pro-val-ser-ala-val-arg-ala (…)]
